From PubChem BioAssay AID624432 (The Scripps Research Institute Molecular Screening Center, 2012)
The source made the active and inactive calls.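 Rule for the calls: active = compounds whose fitted IC50 is below 25 µM; inactive = the rest.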

Biological target: Serine/threonine-protein phosphatase 5 (Homo sapiens) (UniProt P53041)
Test: PP5 inhibitor potency, OMFP cleavage, dose response, biochemical, fluorescence, powder samples, fifth round (AID 624432)
Details: purified PP5c, OMFP dephosphorylation

Sequence of Serine/threonine-protein phosphatase 5 (Homo sapiens) (P53041 whole entry, looked up): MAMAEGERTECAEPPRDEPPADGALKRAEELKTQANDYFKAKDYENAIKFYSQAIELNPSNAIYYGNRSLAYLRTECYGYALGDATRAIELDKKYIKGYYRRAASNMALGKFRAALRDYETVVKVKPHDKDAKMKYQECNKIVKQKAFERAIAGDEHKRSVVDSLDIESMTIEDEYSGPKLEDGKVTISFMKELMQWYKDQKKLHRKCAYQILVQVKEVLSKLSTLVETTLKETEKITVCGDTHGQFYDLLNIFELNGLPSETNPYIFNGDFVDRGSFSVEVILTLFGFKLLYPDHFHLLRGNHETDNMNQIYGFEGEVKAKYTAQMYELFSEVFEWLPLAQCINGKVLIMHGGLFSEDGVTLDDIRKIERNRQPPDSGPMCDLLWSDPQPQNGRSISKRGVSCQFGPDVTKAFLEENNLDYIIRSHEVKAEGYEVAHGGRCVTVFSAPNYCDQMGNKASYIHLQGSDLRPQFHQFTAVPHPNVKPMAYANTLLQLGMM

SMILES | IC50
Cc1cccc(C)c1-c1n[nH]nc1C(=O)O | inactive
O=C(O)c1n[nH]nc1-c1ccccc1C(F)(F)F | > 1000 µM (inactive)
